Results reported in US20160120831A1, “INCREASE OF PROTEIN SYNTHESIS AMELIORATES SYNAPTOPATHY-RELATED NEUROLOGICAL DISORDERS” (Academia Sinica, priority 2014, published 2016).

Legend:
SOD1-G93A mice = test: Animal model of amyotrophic lateral sclerosis (ALS), survival; type: in vivo, mouse; settings: leucine supplement water 80 mg/day from 120 days old
Procedure: To examine the effect of leucine on ALS, 120 days old mice (wild-type or SOD1-G93A mice) were provided with normal water or leucine supplement water (80 mg/day) until animal died.
SOD1-G93A mouse is an animal model widely used in the art for ALS study. In this example, the SOD1-G93A transgenic mice were used to evaluate the effect of leucine on ALS.

VCP^R95G-neurons = test: Azidohomoalanine (AHA) labelling of protein synthesis in neurons transfected with wild-type or mutant VCP; type: cell-based, mouse; settings: leucine for 3 days, AHA label 1 hour
Procedure: FIG. 1A are confocal microscopy images of neurons that are respectively transfected with specified plasmids respectively expressing wild-type (WT) VCP and mutant VCP, and treated with 2.5 mM leucine for three days and labeled with azidohomoalanine (AHA) for 1 hour according to Example 1 of the present disclosure; the transfected neurons are either pointed by arrows or outlined; scale bar presents 20 μm; FIG. 1B is a histogram depicting the relative AHA intensity of neurons that were respectively transfected with specified plasmids, and treated with different concentrations of leucine for three days and labeled with AHA for 1 hour according to Example 1 of the present disclosure; data from three independent experiments are presented as mean plus standard error of mean (SEM); ns, no significance; ***, P<0.001; For primary neuronal culture, pregnant mice were sacrificed by subjecting to CO2 inhalation, and the fetal pups were isolated and sacrificed by decapitation. Then, cortical neurons were dissociated from the brains of embryonic mice of 18 days. The obtained neurons were cultured in Neurobasal medium, supplemented with 2% B27 supplement, 0.5 mM glutamine, and 12.5 μM glutamate in the density of 260,000 cells/cm^2. The cells were kept in a 5% CO2-humidified chamber at 37° C. […]

Nf1^+/- neurons = test: Dendritic spine density of wild-type or Nf1^+/- neurons; type: cell-based, mouse
Procedure: For primary neuronal culture, pregnant mice were sacrificed by subjecting to CO2 inhalation, and the fetal pups were isolated and sacrificed by decapitation. Then, cortical neurons were dissociated from the brains of embryonic mice of 18 days. The obtained neurons were cultured in Neurobasal medium, supplemented with 2% B27 supplement, 0.5 mM glutamine, and 12.5 μM glutamate in the density of 260,000 cells/cm^2. The cells were kept in a 5% CO2-humidified chamber at 37° C. Images of neurons were recorded with a confocal microscope (LSM700, Zeiss) equipped with a Plan-Apochromat 63×NA 1.4 oil objective lens (Zeiss) and captured with Zen acquisition and analysis software (Zeiss) at 20-22° C. as a Z-series of 5-12 sections spaced 0.6-0.8 μm apart. The Z-series was then projected into single images. The images were processed with Photoshop (Adobe), with minimal adjustment of brightness or contrast applied to the whole images. To analyze dendritic spine density, the spine number of each dendrite fragment about 20 μm in length, which started from a point 20 μm away from the soma, was manually counted using Image J software. As dendritic spine formation is highly sensitive to culture conditions, each experiment was repeated using the same lot of culture medium. […] To minimize the effects of bias, some of the critical experiments were performed blind by relabeling the samples with the assistance of other lab members.

Nf1^+/- mice [1] = test: Contextual fear conditioning; type: in vivo, mouse
Procedure: To examine the effect of leucine on contextual fear memory, mice (wild-type or Nf1^+/− mice) were provided with normal water or leucine supplement water (0.9-3.6 g/Kg) for 7 days prior to testing, which was continued through the entire behavioral task. Mice were subjected to contextual fear conditioning, which was carried out for 6 days with one trial per day. For the first 5 days, mice were placed into the conditioning chamber for 60 sec, then a single foot shock was performed (0.4 mA intensity for 2 sec). After the foot shock, mice were left in the chamber for another 120 sec before returning to their home cage. On the 6th day, mice were placed into the conditioning chamber for 180 sec without foot shock. Freezing responses during the first 10-60 sec of each trial were videotaped and measured using the FreezeScan 2.0 system (CleverSys). Nf1^+/− mice were used to study the effect of leucine on learning and memory, in which the effect was assessed by contextual fear conditioning as described in Materials and Methods. Briefly, wild-type or Nf1^+/− mice were administered water or leucine, as a supplement in water, for 7 days and then subjected to contextual fear conditioning (FIG. 4A). There was no difference in drinking preference for water or leucine solution between WT and Nf1^+/− mice, nor was there difference in weight gain between the two mice (FIG. 4B).

[2] = test system: VCP^R95G-expressing neurons; test: Dendritic spine density of neurons transfected with VCP^WT or VCP^R95G plasmids; type: cell-based, mouse
Procedure: For primary neuronal culture, pregnant mice were sacrificed by subjecting to CO2 inhalation, and the fetal pups were isolated and sacrificed by decapitation. Then, cortical neurons were dissociated from the brains of embryonic mice of 18 days. The obtained neurons were cultured in Neurobasal medium, supplemented with 2% B27 supplement, 0.5 mM glutamine, and 12.5 μM glutamate in the density of 260,000 cells/cm^2. The cells were kept in a 5% CO2-humidified chamber at 37° C. The wild-type VCP gene was amplified by PCR using a forward primer having a nucleotide sequence of SEQ ID NO: 1, and a reverse primer having a nucleotide sequence of SEQ ID NO: 2. The amplified DNA segment was subsequently constructed in to GW1-Myc plasmid. To generate the […] mutation, a pair of primers respectively having nucleotide sequences of SEQ ID NOs: 3 and 4 were used in site-directed mutagenesis with wild-type VCP construct as a template. […] Images of neurons were recorded with a confocal microscope (LSM700, Zeiss) equipped with a Plan-Apochromat 63×NA 1.4 oil objective lens (Zeiss) and captured with Zen acquisition and analysis software (Zeiss) at 20-22° C. as a Z-series of 5-12 sections spaced 0.6-0.8 μm apart. […] To analyze dendritic spine density, the spine number of each dendrite fragment about 20 μm in length, which started from a point 20 μm away from the soma, was manually counted using Image J software. […]

Nf1^+/- mice [3] = test: Golgi staining of mouse brains for dendritic spine density; type: in vivo; settings: Nf1^+/- mice after taking leucine solution
ATL-1^R95G = test: Dendritic spine density of neurons expressing wild-type or mutant ATL1; type: cell-based, mouse; settings: mutant ATL1 neurons; 2.5 mM or 5 mM leucine, 3 days; P<0.001
Procedure: For primary neuronal culture, pregnant mice were sacrificed by subjecting to CO2 inhalation, and the fetal pups were isolated and sacrificed by decapitation. Then, cortical neurons were dissociated from the brains of embryonic mice of 18 days. The obtained neurons were cultured in Neurobasal medium, supplemented with 2% B27 supplement, 0.5 mM glutamine, and 12.5 μM glutamate in the density of 260,000 cells/cm^2. The cells were kept in a 5% CO2-humidified chamber at 37° C. Mouse Atl1 was amplified by PCR with a primer set respectively having nucleotide sequences of SEQ ID NOs: 5 and 6. The amplified products were subcloned into the Gw1-Myc2b vector. The […] mutant was generated by site directed mutagenesis with a primer set respectively having nucleotide sequences of SEQ ID NOs: 7 and 8. Images of neurons were recorded with a confocal microscope (LSM700, Zeiss) equipped with a Plan-Apochromat 63×NA 1.4 oil objective lens (Zeiss) and captured with Zen acquisition and analysis software (Zeiss) at 20-22° C. as a Z-series of 5-12 sections spaced 0.6-0.8 μm apart. The Z-series was then projected into single images. […] To analyze dendritic spine density, the spine number of each dendrite fragment about 20 μm in length, which started from a point 20 μm away from the soma, was manually counted using Image J software. […]

## CC(C)C[C@H](N)C(=O)O [leucine]
SOD1-G93A mice
  percentage of survival: significantly increased the percentage of survival
SOD1-G93A mice; control mice 147.3±3.84 days
  mean survival time: 172.0 ± 3.96 days
VCP^R95G-neurons
  AHA intensity: dose-dependently increased the AHA intensity
Nf1^+/- neurons; Nf1^+/- neurons, 2.5 mM leucine
  protrusion number versus wild-type neurons: equal to that of wild-type neurons
Nf1^+/- neurons; Nf1^+/- neurons, leucine for 3 days
  dendritic spine formation / dendritic spine number: significantly ameliorated the defect in dendritic spine formation
Nf1^+/- neurons; wild-type dendrite fragment, leucine for 3 days
  number of protrusions: did not further raise the number of protrusions
Nf1^+/- mice [1]; Nf1^+/- mice after leucine administration
  freezing responses versus WT mice: comparable to those of WT mice
Nf1^+/- mice [1]; Nf1^+/- mice, leucine supplement water 0.9-3.6 g/Kg, oral
  associative memory (freezing response): significantly increase the associative memory
Nf1^+/- mice [1]; wild-type mice, leucine supplement water 0.9-3.6 g/Kg, oral
  fear memory (freezing response): did not further enhance the fear memory
[2]; VCP^R95G-dendrite fragment, leucine 2 mM (P<0.01) and 2.5 mM (P<0.001) vs basal, 3 days
  protrusion number of dendrite fragment: significantly increased the protrusion number
[2]; VCP^WT-dendrite fragment, leucine for 3 days
  protrusion number of dendrite fragment: did not produce obvious effect
Nf1^+/- mice [3]
  dendritic spine density in brain: increase in dendritic spine density
ATL-1^R95G
  dendritic spine number: significantly increased the dendritic spine number
